Test results as given in patent US7935687B2, “Methods for treating spinal muscular atrophy using tetracycline compounds” (Paratek Pharmaceuticals, Inc., priority 2007, dated 2011).

What was measured:
S. aureus (SA RN450) = assay: Antibacterial MIC, gram positive; assay type: cell-based; settings: CLSI methodology, 35° C., 18-24 hours
E. coli (EC D1-209) = assay: Antibacterial MIC, gram negative; assay type: cell-based; settings: CLSI methodology, 35° C., 18-24 hours
SMN2 mRNA = assay: In vitro cell-free splicing assay for inclusion of exon 7; assay type: biochemical; settings: HeLa cell nuclear extract, 30° C., 3 hours
Summary of the method: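 ^32P-labelled SMN2 minigene pre-mRNA (exon 6 to part of exon 8; 10 fmol) spliced 3 h at 30 °C in 30% HeLa nuclear extract with 0.5 mM ATP, 1.56 mM MgCl2, pH 7.4, plus compound or buffer. Exon 7 inclusion quantified by denaturing PAGE and phosphorimaging. Emax is maximal % inclusion and Cmax the lowest concentration (μM) reaching it, reported as binned grades.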

Row | Compound | MIC Gram Positive (SA RN450) (S. aureus (SA RN450)) | MIC Gram Negative (EC D1-209) (E. coli (EC D1-209)) | Cmax (lowest compound concentration at which the maximum exon 7 inclusion occurs) (SMN2 mRNA) | Emax (maximum percentage exon 7 inclusion observed) (SMN2 mRNA) | MIC (S. aureus (SA RN450); Staphylococcus aureus) [µg/mL] | MIC (E. coli (EC D1-209); Escherichia coli) [µg/mL]
1 | CN(C)C1C(O)=C(C(N)=O)C(=O)C2(O)C(O)=C3C(=O)c4c(O)ccc(-c5cccc(C(=O)NCCN6CCCCC6)c5)c4CC3CC12 (stereo not shown) [U] | *** (Good antibacterial activity (e.g., less than about 4 μg/mL)) | ** (modest antibacterial activity (between about 4 and 8 μg/mL)) | ** (concentrations between 40 and 10 μM) | ** (values of 10-20%) | – | –
2 | COc1ccc(-c2ccc(O)c3c2CC2CC4C(N(C)C)C(O)=C(C(N)=O)C(=O)C4(O)C(O)=C2C3=O)cc1CNCC(N)=O (stereo not shown) [BE] | *** (Good antibacterial activity (e.g., less than about 4 μg/mL)) | * (weak antibacterial activity (greater than about 8 μg/mL)) | *** (concentrations of less than 10 μM) | ** (values of 10-20%) | – | –
3 | CN(C)C1C(O)=C(C(N)=O)C(=O)C2(O)C(O)=C3C(=O)c4c(O)ccc(-c5ccc(NC(=O)CNC(C)(C)C)cc5)c4CC3CC12 (stereo not shown) [AF] | *** (Good antibacterial activity (e.g., less than about 4 μg/mL)) | *** (Good antibacterial activity (e.g., less than about 4 μg/mL)) | *** (concentrations of less than 10 μM) | * (percentage inclusion values of less than 10%) | – | –
4 | CN(C)CCCC(=O)Nc1cccc(-c2ccc(O)c3c2CC2CC4C(N(C)C)C(O)=C(C(N)=O)C(=O)C4(O)C(O)=C2C3=O)c1 (stereo not shown) [Compound Q] | *** (Good antibacterial activity (e.g., less than about 4 μg/mL)) | * (weak antibacterial activity (greater than about 8 μg/mL)) | *** (concentrations of less than 10 μM) | ** (values of 10-20%) | – | –
5 | CN(C)C1C(O)=C(C(N)=O)C(=O)C2(O)C(O)=C3C(=O)c4c(O)ccc(-c5coc(CN6CCCCC6)c5)c4CC3CC12 (stereo not shown) [BF] | *** (Good antibacterial activity (e.g., less than about 4 μg/mL)) | *** (Good antibacterial activity (e.g., less than about 4 μg/mL)) | *** (concentrations of less than 10 μM) | ** (values of 10-20%) | – | –
6 | COCCNCc1ccoc1-c1ccc(O)c2c1CC1CC3C(N(C)C)C(O)=C(C(N)=O)C(=O)C3(O)C(O)=C1C2=O (stereo not shown) [BQ] | *** (Good antibacterial activity (e.g., less than about 4 μg/mL)) | * (weak antibacterial activity (greater than about 8 μg/mL)) | *** (concentrations of less than 10 μM) | ** (values of 10-20%) | – | –
7 | CCN(CC)CCNC(=O)c1cccc(-c2ccc(O)c3c2C[C@H]2C[C@H]4[C@H](N(C)C)C(O)=C(C(N)=O)C(=O)[C@@]4(O)C(O)=C2C3=O)c1 [Compound E, (4S,4aS,5aR,12aS)-7-[3-(2-Diethylamino-ethylcarbamoyl)-phenyl]-4-dimethylamino-3,10,12,12a-tetrahydroxy-1,11-dioxo-1,4,4a,5,5a,6,11,12a-octahydro-naphthacene-2-carboxylic Acid Amide] | – | – | ** (concentrations between 40 and 10 μM) | *** (values greater than 20%) | < 4 | > 8
